In ChEMBL document CHEMBL1759949, “In vitro cytotoxicity of melleolide antibiotics: structural and mechanistic aspects” (Bioorg Med Chem Lett, 2011):
Active and inactive are the calls of the source. No cut-off for these calls is given here. Starred links: 1 amine or outer side, 2 acyl side, 3 side chain; linkers in the order of their positions; H or OH if unused. Positions of bridges follow the written chain, without caps; N, C: chain ends. Non-standard residues stand in square brackets, D forms with d. Residues, ends and D or L forms follow the SMILES beside them. Chains are numbered I, II in the order given. Actinocin(1to9) = Cc1c2oc3c(C)ccc(C(=O)[*:2])c3nc-2c(C(=O)[*:1])c(N)c1=O; NMeV = CN[C@H](C(=O)O)C(C)C; Sar = CNCC(=O)O

Experiments:
K562 [1] = experiment: Inhibition of transcription in human K562 cells at 3.5 uM after 120 mins; assay type: functional; design: scale not given: the % may be the effect or the level left
K562 [2] = experiment: Inhibition of protein synthesis in human K562 cells assessed as [14C]L-leucine incorporation at 3.5 uM after 120 mins; assay type: functional; design: scale not given: the % may be the effect or the level left
HeLa [3] = experiment: Cytotoxicity against human HeLa cells; assay type: functional, cell-based
Jurkat [4] = experiment: Cytotoxicity against human Jurkat cells; assay type: functional, cell-based
MCF7 [5] = experiment: Cytotoxicity against human MCF7 cells; assay type: functional, cell-based
K562 [6] = experiment: Cytotoxicity against human K562 cells; assay type: functional, cell-based
K562 [7] = experiment: Inhibition of protein synthesis in human K562 cells assessed as [14C]L-leucine incorporation at 0.47 uM after 120 mins; assay type: functional; design: scale not given: the % may be the effect or the level left
K562 [8] = experiment: Inhibition of transcription in human K562 cells at 0.47 uM after 120 mins; assay type: functional; design: scale not given: the % may be the effect or the level left
K562 [9] = experiment: Inhibition of DNA synthesis in human K562 cells assessed as [14C]thymidine incorporation at 0.47 uM after 120 mins; assay type: functional; design: scale not given: the % may be the effect or the level left
MCF7 [10] = experiment: Cytotoxicity against human MCF7 cells at <=100 uM; assay type: functional, cell-based
Jurkat [11] = experiment: Cytotoxicity against human Jurkat cells at <=100 uM; assay type: functional, cell-based
HeLa [12] = experiment: Cytotoxicity against human HeLa cells at <=100 uM; assay type: functional, cell-based
K562 [13] = experiment: Cytotoxicity against human K562 cells at <=100 uM; assay type: functional, cell-based
K562 [14] = experiment: Inhibition of DNA synthesis in human K562 cells assessed as [14C]thymidine incorporation at 4 uM after 120 mins; assay type: functional; design: scale not given: the % may be the effect or the level left
K562 [15] = experiment: Inhibition of transcription in human K562 cells at 4 uM after 120 mins; assay type: functional; design: scale not given: the % may be the effect or the level left
K562 [16] = experiment: Inhibition of DNA synthesis in human K562 cells assessed as [14C]thymidine incorporation at 5 uM after 120 mins; assay type: functional; design: scale not given: the % may be the effect or the level left
K562 [17] = experiment: Inhibition of DNA synthesis in human K562 cells assessed as [14C]thymidine incorporation at 1.25 uM after 120 mins; assay type: functional; design: scale not given: the % may be the effect or the level left
K562 [18] = experiment: Inhibition of RNA synthesis in human K562 cells assessed as inhibition of [14C]uridine incorporation upto 5 uM after 120 mins; assay type: functional, cell-based
K562 [19] = experiment: Inhibition of protein synthesis in human K562 cells assessed as [14C]L-leucine incorporation at 1.25 uM after 120 mins; assay type: functional; design: scale not given: the % may be the effect or the level left
K562 [20] = experiment: Inhibition of protein synthesis in human K562 cells assessed as [14C]L-leucine incorporation at 5 uM after 120 mins; assay type: functional; design: scale not given: the % may be the effect or the level left
K562 [21] = experiment: Inhibition of protein synthesis in human K562 cells assessed as [14C]L-leucine incorporation at 5 uM after 60 mins; assay type: functional; design: scale not given: the % may be the effect or the level left
K562 [22] = experiment: Inhibition of protein synthesis in human K562 cells assessed as inhibition of [14C]L-leucine incorporation at 1.25 uM after 60 mins; assay type: functional, cell-based
K562 [23] = experiment: Inhibition of DNA synthesis in human K562 cells assessed as [14C]thymidine incorporation at 1.25 uM after 60 mins; assay type: functional; design: scale not given: the % may be the effect or the level left
K562 [24] = experiment: Inhibition of cellular respiration in human K562 cells at 1.25 to 5 uM; assay type: functional, cell-based
K562 [25] = experiment: Inhibition of DNA synthesis in human K562 cells assessed as [14C]thymidine incorporation at 5 uM after 60 mins; assay type: functional; design: scale not given: the % may be the effect or the level left

C[C@@H]1C[C@@H]([C@H](O)CC2CC(=O)NC(=O)C2)C(=O)[C@@H](C)C1 [CYCLOHEXIMIDE]
Activity (K562 [1]): 99% | Activity (K562 [2]): 26%

COc1cc(O)c(C(=O)O[C@@H]2C[C@]3(C)[C@H]4CC(C)(C)C[C@H]4C=C(C=O)[C@]23O)c(C)c1Cl [ARMILLARIDIN]
IC50 (HeLa [3]): 9.2 µM | IC50 (Jurkat [4]): 3 µM | IC50 (MCF7 [5]): 7.8 µM | IC50 (K562 [6]): 8.9 µM

COc1cccc2c1C(=O)c1c(O)c3c(c(O)c1C2=O)C[C@@](O)(C(=O)CO)C[C@@H]3O[C@H]1C[C@H](N)[C@H](O)[C@H](C)O1 [DOXORUBICIN]
Activity (K562 [7]): 89% | Activity (K562 [8]): 79% | Activity (K562 [9]): 46%

COc1cc(O)c(C(=O)OCC2=C[C@]3(O)CC(C)(C)[C@H](O)[C@@H]3[C@@]3(C)C[C@@H](O)[C@@]23O)c(C)c1Cl
Activity (MCF7 [10]): Not toxic | Activity (Jurkat [11]): Not toxic | Activity (HeLa [12]): Not toxic | Activity (K562 [13]): Not toxic

Cc1c(Cl)c(O)cc(O)c1C(=O)O[C@@H]1C[C@]2(C)[C@H]3CC(C)(C)C[C@@]3(O)C=C(CO)[C@]12O
IC50 (HeLa [3]): > 100 µM | IC50 (Jurkat [4]): 46.6 µM | IC50 (MCF7 [5]): > 100 µM | IC50 (K562 [6]): > 100 µM

COc1cc(O)c(C(=O)O[C@@H]2C[C@]3(C)[C@H]4CC(C)(CO)C[C@@]4(O)C=C(CO)[C@]23O)c(C)c1Cl (stereo not given in full)
Activity (MCF7 [10]): Not toxic | Activity (Jurkat [11]): Not toxic | Activity (HeLa [12]): Not toxic | Activity (K562 [13]): Not toxic

COc1cc(O)c(C(=O)O[C@@H]2C[C@]3(C)[C@H]4CC(C)(C)C[C@H]4C=C(CO)[C@]23O)c(C)c1Cl
IC50 (HeLa [3]): 40 µM | IC50 (Jurkat [4]): 10.4 µM | IC50 (MCF7 [5]): 21.3 µM | IC50 (K562 [6]): 38.9 µM

Cc1c2oc3c(C)ccc(C(=O)N[C@@H]4C(=O)N[C@H](C(C)C)C(=O)N5CCC[C@H]5C(=O)N(C)CC(=O)N(C)[C@@H](C(C)C)C(=O)O[C@@H]4C)c3nc-2c(C(=O)N[C@@H]2C(=O)N[C@H](C(C)C)C(=O)N3CCC[C@H]3C(=O)N(C)CC(=O)N(C)[C@@H](C(C)C)C(=O)O[C@@H]2C)c(N)c1=O [DACTINOMYCIN] (I: T[dV]P[Sar][NMeV] / II: T[dV]P[Sar][NMeV]; ester I:1-I:C, II:1-II:C; linker I:N-II:N via Actinocin(1to9))
Activity (K562 [14]): 58% | Activity (K562 [15]): 2%

Cc1cc(O)cc(O)c1C(=O)O[C@@H]1C[C@]2(C)[C@H]3CC(C)(C)C[C@@]3(O)C=C(CO)[C@]12O
Activity (MCF7 [10]): Not toxic | Activity (Jurkat [11]): Not toxic | Activity (HeLa [12]): Not toxic | Activity (K562 [13]): Not toxic

Cc1cc(O)cc(O)c1C(=O)O[C@@H]1C[C@@]2(C)C1=C(C=O)[C@@H](O)[C@@H]1CC(C)(C)C[C@@H]12 [DEHYDROARMILLYLORSELLINATE]
Activity (K562 [16]): 35% | Activity (K562 [17]): 71% | IC50 (HeLa [3]): 15.2 µM | inhibition (K562 [18]): inactive | Activity (K562 [19]): 96% | Activity (K562 [20]): 35% | Activity (K562 [21]): 76% | inhibition (K562 [22]): inactive | Activity (K562 [23]): 90% | IC50 (Jurkat [4]): 16.9 µM | IC50 (MCF7 [5]): 8 µM | inhibition (K562 [24]): inactive | IC50 (K562 [6]): 5 µM | Activity (K562 [25]): 70%

COc1cc(O)c(C(=O)O[C@@H]2C[C@]3(C)[C@H]4[C@@H](O)C(C)(C)C[C@@]4(O)C=C(CO)[C@]23O)c(C)c1Cl
Activity (MCF7 [10]): Not toxic | Activity (Jurkat [11]): Not toxic | Activity (HeLa [12]): Not toxic | Activity (K562 [13]): Not toxic

COc1cc(O)c(C(=O)O[C@@H]2C[C@]3(C)[C@H]4CC(C)(C)C[C@H]4C=C(C=O)[C@]23OC)c(C)c1Cl
IC50 (HeLa [3]): 18.8 µM | IC50 (Jurkat [4]): 4.1 µM | IC50 (MCF7 [5]): 6.7 µM | IC50 (K562 [6]): 20.6 µM

COc1cc(C)c(C(=O)O[C@@H]2C[C@]3(C)[C@H]4CC(C)(C)C[C@H]4C=C(C=O)[C@]23O)c(O)c1 [ARMILLARIN]
IC50 (HeLa [3]): 16.7 µM | IC50 (MCF7 [5]): 11.6 µM | IC50 (K562 [6]): 9.9 µM

COc1cc(O)c(C(=O)O[C@@H]2C[C@]3(C)[C@H]4CC(C)(C)C[C@H]4[C@H](O)[C@@H](CO)[C@]23O)c(C)c1Cl
IC50 (HeLa [3]): 35.8 µM | IC50 (Jurkat [4]): 13.3 µM | IC50 (MCF7 [5]): 26.5 µM | IC50 (K562 [6]): 25 µM
